Measured values from patent publication US10993941B2, “Methods for the administration of certain VMAT2 inhibitors” (Neurocrine Biosciences, Inc., priority 2017, dated 2021).
Entries after “also recorded” stand apart in the source; their conditions may differ.

Key:
[1] = both, human, in vivo
Excerpt: (§1) Overall, 24 male and female subjects were enrolled, including 6 subjects with normal hepatic function (Group I), 6 with mild stable hepatic impairment (Group II), 6 with moderate stable hepatic impairment (Group III), and 6 with severe stable hepatic impairment (Group IV). […] All subjects were genotyped to determine their cytochrome P450 2D6 (CYP2D6) status.
(§2) The Child-Pugh scale was used to categorize the degree of hepatic impairment for assignment into the mild (score of 5-6), moderate (score of 7-9), and severe hepatic impairment (score of 10-15) groups.
(§3) After providing informed consent, subjects were screened for eligibility within 28 days of study drug dosing on Day 1. Eligible subjects were admitted to the center in the morning (Day −1), before the dosing day and remained confined in the center for 4 days. Subjects were discharged on Day 4, after the collection of the 72-hour PK sample and safety assessments. On the morning of Days 5 and 6, subjects returned to the center for a PK sample collection and safety assessments; a final study visit was conducted on Day 8 (7 days postdose).
(§4) Safety assessments were conducted at scheduled times throughout the study.

serum prolactin = experiment: Prolactin release, in vivo surrogate measure
[2] = system: dopamine, serotonin and adrenergic receptor subtypes; experiment: Detailed radioligand binding assays, monoamine receptor subtypes
[3] = system: more than 80 targets including GPCRs, cell-surface monoamine transporters, and ion channels including HERG; experiment: Multi-target activity screen (Cerep screen); conditions: receptors
ptosis = experiment: Ptosis, in vivo surrogate measure
human VMAT1 transporter = target: T1, human VMAT1 transporter (Homo sapiens, UniProt P54219); experiment: Uptake in cells expressing VMAT1; type: cell-based; conditions: concentrations up to 10 μM
T1 construct: expressed in transfected cells
T1 sequence (P54219 1-525): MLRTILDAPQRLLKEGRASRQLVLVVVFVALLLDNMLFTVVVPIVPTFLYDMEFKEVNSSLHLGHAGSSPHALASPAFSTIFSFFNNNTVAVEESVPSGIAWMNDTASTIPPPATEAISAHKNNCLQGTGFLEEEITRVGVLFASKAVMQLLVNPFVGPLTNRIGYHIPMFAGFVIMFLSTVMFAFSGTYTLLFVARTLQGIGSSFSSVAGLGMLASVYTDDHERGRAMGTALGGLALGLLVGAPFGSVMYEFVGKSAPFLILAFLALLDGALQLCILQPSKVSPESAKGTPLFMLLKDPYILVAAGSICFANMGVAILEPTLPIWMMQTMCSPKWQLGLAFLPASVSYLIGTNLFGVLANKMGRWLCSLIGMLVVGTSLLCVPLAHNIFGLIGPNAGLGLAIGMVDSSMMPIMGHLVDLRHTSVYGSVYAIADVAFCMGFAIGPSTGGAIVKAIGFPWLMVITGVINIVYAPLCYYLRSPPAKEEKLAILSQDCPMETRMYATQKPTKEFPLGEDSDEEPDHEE
Experimental: None of the TBZ or VBZ metabolites had any affinity for the monoamine transporters DAT, SERT or NET. To complete the selectivity profile for VMAT2, the functional activity for the human VMAT1 transporter of these compounds was tested in cells expressing VMAT1.

clinical = conditions: both, human, in vivo
Excerpt: as §1, §2, §3, §4

Dopamine D2(s) = Dopamine D2(s) (Homo sapiens, UniProt P14416); experiment: Cerep screen, ligand binding; conditions: radioligand binding assays and broad panel screen
Dopamine D1 = Dopamine D1 (Homo sapiens, UniProt P21728); experiment: Cerep screen, ligand binding; conditions: radioligand binding assays and broad panel screen
Dopamine D1, sequence (P21728 whole entry): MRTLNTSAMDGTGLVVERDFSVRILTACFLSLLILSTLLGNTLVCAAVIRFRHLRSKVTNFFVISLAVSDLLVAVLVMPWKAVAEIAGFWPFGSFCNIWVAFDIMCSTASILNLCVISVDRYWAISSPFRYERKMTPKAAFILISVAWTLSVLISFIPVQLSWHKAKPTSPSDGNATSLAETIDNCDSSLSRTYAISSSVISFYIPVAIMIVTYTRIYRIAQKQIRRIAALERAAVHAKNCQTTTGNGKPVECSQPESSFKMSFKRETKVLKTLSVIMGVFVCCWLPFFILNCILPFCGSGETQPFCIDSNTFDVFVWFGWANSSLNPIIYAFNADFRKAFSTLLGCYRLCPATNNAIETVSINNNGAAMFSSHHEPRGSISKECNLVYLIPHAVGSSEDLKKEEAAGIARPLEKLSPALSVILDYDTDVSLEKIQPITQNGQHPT

Dopamine D2(s), sequence (P14416 1-414 isoform P14416-2): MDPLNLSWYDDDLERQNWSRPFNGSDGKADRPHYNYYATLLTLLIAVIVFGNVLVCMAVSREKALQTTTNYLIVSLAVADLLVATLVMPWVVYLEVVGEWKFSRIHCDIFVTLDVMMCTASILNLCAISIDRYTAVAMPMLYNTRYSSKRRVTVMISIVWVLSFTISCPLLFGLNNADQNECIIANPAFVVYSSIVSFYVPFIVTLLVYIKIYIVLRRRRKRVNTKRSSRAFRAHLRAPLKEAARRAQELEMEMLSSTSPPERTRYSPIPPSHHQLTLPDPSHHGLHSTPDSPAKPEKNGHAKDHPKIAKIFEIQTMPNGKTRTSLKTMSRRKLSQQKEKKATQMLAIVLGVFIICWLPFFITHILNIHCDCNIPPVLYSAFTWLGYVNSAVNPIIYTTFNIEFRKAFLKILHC

Compound	increase in AUC0-∞ [1]	increase in t1/2 with hepatic impairment [1] [fold]	increase in tmax with hepatic impairment [1] [fold]	mean Tlag [1] [h]	increase in serum prolactin levels (serum prolactin)	affinity for more than 80 binding sites [3]	induction of ptosis (ptosis)	MRT (clinical) [h]	MRT (clinical; po, 50 mg) [h]	interaction with D2 receptors (Dopamine D2(s))	interaction with D1 receptors (Dopamine D1)	inhibition of uptake through VMAT1 (human VMAT1 transporter)	also measured
COc1cc2c(cc1OC)[C@H]1C[C@@H](O)[C@H](CC(C)C)CN1CC2 [NBI-98782, (2R,3R,11bR)-3-isobutyl-9,10-dimethoxy-1,3,4,6,7,11b-hexahydro-2H-pyrido[2,1-a]isoquinolin-2-ol]	approximately 3.5 fold	< 2	< 2	0.42 to 0.67	induced a similar increase in serum prolactin levels as TBZ	little to no affinity	induced ptosis in an equivalent manner	36 to 53	36	–	–	–	specificity for the VMAT2 transporter versus monoamine receptor subtypes [2]: high specificity; inhibition of uptake through VMAT1 (human VMAT1 transporter; listed as R,R,R-DHTBZ): no significant inhibitory activity; also recorded: no significant effect on the uptake of monoamines through VMAT1
COc1cc2c(cc1OC)[C@H]1C[C@@H](OC(=O)[C@@H](N)C(C)(C)O)[C@H](CC(C)C)CN1CC2 [NBI-136110]	< 2 fold	< 2	< 2	0.33 to 0.54	–	little to no affinity	–	51 to 81	53	–	–	–	increase in Cmax [1]: < 2 fold; mean molar ratio of plasma AUC0-∞ for NBI-136110 versus NBI-98854 [1]: 28.3-37.3%; half-life (clinical; mean t1/2): 1980 to 2160 min; Tmax (clinical; median tmax): 2.5 to 4 h; AUC(0-t) (clinical; po, 50 mg, AUC0-24): 363 ng·h/mL; AUC(0-t) (clinical; po, 50 mg, AUC0-TLAST): 928 ng·h/mL; AUC(0-inf) (clinical; po, 50 mg, AUC0-∞): 1030 ng·h/mL; Cmax (clinical; po, 50 mg, CMAX): 32.5 ng/mL; Tmax (clinical; po, 50 mg, TMAX): 4 h; half-life (clinical; po, 50 mg, t1/2): 3420 min
COc1cc2c(cc1OC)[C@@H]1C[C@@H](O)[C@@H](CC(C)C)CN1CC2 [R,S,S-DHTBZ]	–	–	–	–	–	–	–	–	–	interact with D1 and D2 receptors	interact with D1 and D2 receptors	–	–
COc1cc2c(cc1OC)[C@@H]1C[C@H](O)[C@@H](CC(C)C)CN1CC2 [S,S,S-DHTBZ]	–	–	–	–	–	–	–	–	–	interact with D1 and D2 receptors	interact with D1 and D2 receptors	–	–
COc1cc2c(cc1OC)C1CC(=O)C(CC(C)C)CN1CC2 (stereo not drawn) [TBZ, reference compound]	–	–	–	–	increase in serum prolactin levels	–	induced ptosis in an equivalent manner	–	–	–	–	no significant inhibitory activity; also recorded: no significant effect on the uptake of monoamines through VMAT1	–
COC(=O)[C@H]1[C@H]2C[C@@H]3c4[nH]c5cc(OC)ccc5c4CCN3C[C@H]2C[C@@H](OC(=O)c2cc(OC)c(OC)c(OC)c2)[C@@H]1OC [reserpine, reference compound]	–	–	–	–	–	–	–	–	–	–	–	substantially inhibited uptake through VMAT1	–
